Assay results reported in ChEMBL document CHEMBL5257080, “Optimization of physicochemical properties of pyrrolidine GPR40 AgoPAMs results in a differentiated profile with improved pharmacokinetics and reduced off-target activities” (Bioorg Med Chem, 2023).
Converted amounts (≈) assume the structure as drawn. The source made the active and inactive calls. No cut-off for these calls is given here.

Assays:
[1] = AUC (0 to 24 hrs) in rat at 300 mg/kg qd; assay type: ADME, organism-based; set-up: dose 300 mg/kg; details: in vivo
[2] = Plasma protein binding in human assessed as fraction unbound; assay type: ADME, cell-free
[3] = Total AUC in rat at 1 mg/kg, po; assay type: ADME, organism-based; set-up: dose 1 mg/kg, route po; details: in vivo
[4] = AUC (0 to 24 hrs) in rat at 100 mg/kg, po qd; assay type: ADME, organism-based; set-up: dose 100 mg/kg, route po; details: in vivo
[5] = AUC (0 to 24 hrs) in rat at 12 mg/kg qd; assay type: ADME, organism-based; set-up: dose 12 mg/kg; details: in vivo
[6] = Tmax in rat at 300 mg/kg qd; assay type: ADME, organism-based; details: in vivo
[7] = AUC (0-7hrs) in mouse at 1 mg/kg; assay type: ADME, organism-based; set-up: dose 1 mg/kg; details: in vivo
[8] = biological target: Cytochrome P450 3A4 (Homo sapiens, UniProt P08684); test: Inhibition of CYP3A4 in human liver microsomes; assay type: ADME, Microsome
[9] = Cmax in rat at 60 mg/kg qd; assay type: ADME, organism-based; set-up: dose 60 mg/kg; details: in vivo
[10] = biological target: Cytochrome P450 2D6 (Homo sapiens, UniProt P10635); test: Inhibition of CYP2D6 in human liver microsomes; assay type: ADME, Microsome
[11] = Cmax in mouse at 1 mg/kg; assay type: ADME, organism-based; set-up: dose 1 mg/kg; details: in vivo
[12] = biological target: Cytochrome P450 2C9 (Homo sapiens, UniProt P11712); test: Inhibition of CYP2C9 in human liver microsomes; assay type: ADME, Microsome
[13] = Half life in rat at 3 mg/kg, iv; assay type: ADME, organism-based; details: in vivo
[14] = Cmax in rat at 300 mg/kg qd; assay type: ADME, organism-based; set-up: dose 300 mg/kg; details: in vivo
[15] = Lipophilicity, logD of compound; assay type: physicochemical; details: octanol/water
[16] = biological target: T1, Free fatty acid receptor 1 (Homo sapiens, UniProt O14842); test: Positive allosteric modulation of human GPR40 by calcium based FLIPR analysis
[17] = tested on: Rattus norvegicus; test: Anti-hyperglycemic activity against Sprague-Dawley rat assessed as reduction in plasma glucose AUC at 0.3 mg/kg, po measured at 3 hrs in presence of BMS-538305 by OGTT analysis; assay type: functional; set-up: scale not given: the % may be the effect or the level left
[18] = biological target: T2, Cytochrome P450 2B6 (Homo sapiens, UniProt P20813); test: Inhibition of CYP2B6 in human liver microsomes; assay type: ADME, Microsome
T2 sequence (P20813 whole entry): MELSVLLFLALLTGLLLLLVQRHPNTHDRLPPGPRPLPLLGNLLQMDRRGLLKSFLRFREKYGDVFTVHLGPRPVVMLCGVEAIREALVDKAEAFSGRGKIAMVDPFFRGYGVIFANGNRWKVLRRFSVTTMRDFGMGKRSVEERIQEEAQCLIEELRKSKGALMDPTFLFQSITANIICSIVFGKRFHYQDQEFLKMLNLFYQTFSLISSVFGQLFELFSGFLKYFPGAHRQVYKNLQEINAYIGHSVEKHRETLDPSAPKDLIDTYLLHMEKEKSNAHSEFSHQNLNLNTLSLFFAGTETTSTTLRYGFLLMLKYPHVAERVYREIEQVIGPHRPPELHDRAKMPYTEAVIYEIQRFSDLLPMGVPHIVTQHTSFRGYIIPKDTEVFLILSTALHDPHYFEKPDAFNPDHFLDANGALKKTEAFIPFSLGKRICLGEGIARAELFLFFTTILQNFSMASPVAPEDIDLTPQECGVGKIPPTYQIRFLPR

[19] = Clearance in mouse at 3 mg/kg, iv; assay type: ADME, organism-based; details: in vivo
[20] = Toxicity in rat assessed as NOAEL at 100 mg/kg measured for 28 days; assay type: organism-based; details: in vivo, time 28 day
[21] = Toxicity in rat assessed as vacuolation in pancrease at 100 mg/kg measured for 28 days; assay type: organism-based; details: in vivo, time 28 day
[22] = Solubility of the compound in FeSSIF at pH 5; assay type: ADME
[23] = AUC (0 to 24 hrs) in rat at 60 mg/kg qd; assay type: ADME, organism-based; set-up: dose 60 mg/kg; details: in vivo
[24] = tested on: Rattus norvegicus; test: Hyperglycemic activity in Sprague-Dawley rat assessed as effect on blood glucose level at 30 to 100 mg/kg, qd by glucometer; assay type: functional, organism-based; details: dose 30-100 mg/kg
[25] = Volume of distribution at steady state in rat at 3 mg/kg, iv; assay type: ADME, organism-based; details: in vivo, read-out: Vdss
[26] = Volume of distribution at steady state in mouse at 3 mg/kg, iv; assay type: ADME, organism-based; details: in vivo, read-out: Vdss
[27] = biological target: T3, Cytochrome P450 2C8 (Homo sapiens, UniProt P10632); test: Inhibition of CYP2C8 in human liver microsomes; assay type: ADME, Microsome
T3 sequence (P10632 whole entry): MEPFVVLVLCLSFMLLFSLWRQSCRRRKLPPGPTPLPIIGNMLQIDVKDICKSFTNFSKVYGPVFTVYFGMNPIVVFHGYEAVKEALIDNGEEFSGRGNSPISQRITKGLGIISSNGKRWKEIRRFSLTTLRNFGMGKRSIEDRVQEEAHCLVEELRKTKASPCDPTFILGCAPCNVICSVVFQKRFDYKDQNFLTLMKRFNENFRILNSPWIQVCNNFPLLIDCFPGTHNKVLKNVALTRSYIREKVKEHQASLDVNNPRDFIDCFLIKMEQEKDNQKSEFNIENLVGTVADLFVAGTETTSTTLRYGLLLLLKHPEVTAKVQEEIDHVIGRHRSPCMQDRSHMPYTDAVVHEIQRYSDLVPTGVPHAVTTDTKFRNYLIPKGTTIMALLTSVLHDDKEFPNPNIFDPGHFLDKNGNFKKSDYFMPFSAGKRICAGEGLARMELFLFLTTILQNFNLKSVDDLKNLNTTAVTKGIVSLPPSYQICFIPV

[28] = Metabolic stability in mouse liver microsome assessed as parent compound remaining after 10 mins; assay type: ADME; details: liver microsomes, read-out: Stability
[29] = Toxicity in rat assessed as reduction in cell number at 100 mg/kg measured for 28 days; assay type: organism-based; details: in vivo, time 28 day
[30] = Oral bioavailability in rat at 1 mg/kg; assay type: ADME, organism-based; details: in vivo
[31] = Cmax in rat at 12 mg/kg qd; assay type: ADME, organism-based; set-up: dose 12 mg/kg; details: in vivo
[32] = biological target: Cytochrome P450 2C19 (Homo sapiens, UniProt P33261); test: Inhibition of CYP2C19 in human liver microsomes; assay type: ADME, Microsome
[33] = Permeability of compound across apical to basolateral side in dog MDCK cells; assay type: ADME, cell-based, Canis lupus familiaris; details: read-out: permeability
[34] = tested on: Rattus norvegicus; test: Anti-hyperglycemic activity against Sprague-Dawley rat assessed as reduction in plasma glucose AUC at 0.3 mg/kg, po measured for 20 to 120 mins in presence of BMS-538305 by OGTT analysis; assay type: functional; set-up: scale not given: the % may be the effect or the level left; details: time 20-120 min
[35] = Metabolic stability in human liver microsome assessed as parent compound remaining after 10 mins; assay type: ADME; details: liver microsomes, read-out: Stability
[36] = Total AUC in mouse at 1 mg/kg, po; assay type: ADME, organism-based; set-up: dose 1 mg/kg, route po; details: in vivo
[37] = Metabolic stability in rat liver microsome assessed as parent compound remaining after 10 mins; assay type: ADME; details: liver microsomes, read-out: Stability
[38] = organism: Mus musculus; test: Anti-hyperglycemic activity in GPR40 knockout mouse assessed as reduction in plasma glucose level by OGTT analysis; assay type: functional, organism-based
[39] = Toxicity in rat assessed as reduction in cell size at 100 mg/kg measured for 28 days; assay type: organism-based; details: in vivo, time 28 day
[40] = Cmax in mouse at 1 mg/kg, po; assay type: ADME, organism-based; set-up: dose 1 mg/kg, route po; details: in vivo
[41] = Oral bioavailability in mouse at 1 mg/kg; assay type: ADME, organism-based; details: in vivo
[42] = tested on: Rattus norvegicus; test: Anti-hyperglycemic activity against Sprague-Dawley rat assessed as reduction in plasma glucose AUC at 0.3 mg/kg, po measured for 20 to 120 mins by OGTT analysis; assay type: functional, organism-based; details: time lower 20.0 min, time upper […]
[43] = Tmax in rat at 12 mg/kg qd; assay type: ADME, organism-based; details: in vivo
[44] = Solubility in phosphate buffer at pH 6.5; assay type: physicochemical
[45] = Solubility of the compound in FaSSIF at pH 6.5; assay type: ADME
[46] = Plasma protein binding in mouse assessed as fraction unbound; assay type: ADME, cell-free
[47] = Toxicity in rat assessed as NOAEL by measuring AUC (0 to 24 hrs) measured for 28 days; details: in vivo, time 28 day
[48] = biological target: Free fatty acid receptor 1 (Mus musculus, UniProt Q76JU9); test: Positive allosteric modulation of mouse GPR40
[49] = Tmax in rat at 60 mg/kg qd; assay type: ADME, organism-based; details: in vivo
[50] = Half life in mouse at 3 mg/kg, iv; assay type: ADME, organism-based; details: in vivo
[51] = biological target: T1, Free fatty acid receptor 1; test: Positive allosteric modulation of human GPR40 expressed in HEK293 cells assessed as cAMP accumulation; assay type: cell-based
[52] = organism: Mus musculus; test: Anti-hyperglycemic activity in wild type mouse assessed as reduction in plasma glucose level by OGTT analysis; assay type: functional, organism-based
[53] = Solubility of the compound in FeSSIF at pH 6.5; assay type: ADME
[54] = Cmax in rat at 1 mg/kg, po; assay type: ADME, organism-based; set-up: dose 1 mg/kg, route po; details: in vivo
[55] = tested on: Rattus norvegicus; test: Anti-hyperglycemic activity against Sprague-Dawley rat assessed as reduction in plasma glucose level at 3 mg/kg, po measured for 20 to 120 mins by OGTT analysis; assay type: functional, organism-based; details: time lower 20.0 min, time upper […]
[56] = Clearance in rat at 3 mg/kg, iv; assay type: ADME, organism-based; details: in vivo

T1 sequence (O14842 whole entry): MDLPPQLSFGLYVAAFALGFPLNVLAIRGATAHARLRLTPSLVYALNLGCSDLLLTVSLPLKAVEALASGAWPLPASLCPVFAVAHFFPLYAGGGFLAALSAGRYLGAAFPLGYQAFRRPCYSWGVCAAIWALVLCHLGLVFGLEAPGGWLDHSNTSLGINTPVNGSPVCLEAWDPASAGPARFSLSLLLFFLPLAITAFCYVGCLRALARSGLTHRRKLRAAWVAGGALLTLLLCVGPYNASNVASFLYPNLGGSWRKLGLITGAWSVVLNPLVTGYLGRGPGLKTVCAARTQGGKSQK
Cytochrome P450 2C19, sequence (P33261 whole entry): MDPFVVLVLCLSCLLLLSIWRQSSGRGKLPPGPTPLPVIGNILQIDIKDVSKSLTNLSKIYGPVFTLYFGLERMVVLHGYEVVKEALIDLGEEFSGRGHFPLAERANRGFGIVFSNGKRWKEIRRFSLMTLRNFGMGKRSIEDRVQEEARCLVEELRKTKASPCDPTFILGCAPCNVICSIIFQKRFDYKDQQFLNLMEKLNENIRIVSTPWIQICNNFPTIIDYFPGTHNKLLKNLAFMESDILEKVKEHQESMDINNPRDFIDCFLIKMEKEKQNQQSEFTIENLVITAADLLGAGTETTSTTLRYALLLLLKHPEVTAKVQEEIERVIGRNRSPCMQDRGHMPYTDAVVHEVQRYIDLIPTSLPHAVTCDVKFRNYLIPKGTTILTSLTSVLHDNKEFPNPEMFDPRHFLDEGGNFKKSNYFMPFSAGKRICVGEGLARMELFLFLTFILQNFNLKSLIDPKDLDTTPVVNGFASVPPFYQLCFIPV
Cytochrome P450 3A4, sequence (P08684 whole entry): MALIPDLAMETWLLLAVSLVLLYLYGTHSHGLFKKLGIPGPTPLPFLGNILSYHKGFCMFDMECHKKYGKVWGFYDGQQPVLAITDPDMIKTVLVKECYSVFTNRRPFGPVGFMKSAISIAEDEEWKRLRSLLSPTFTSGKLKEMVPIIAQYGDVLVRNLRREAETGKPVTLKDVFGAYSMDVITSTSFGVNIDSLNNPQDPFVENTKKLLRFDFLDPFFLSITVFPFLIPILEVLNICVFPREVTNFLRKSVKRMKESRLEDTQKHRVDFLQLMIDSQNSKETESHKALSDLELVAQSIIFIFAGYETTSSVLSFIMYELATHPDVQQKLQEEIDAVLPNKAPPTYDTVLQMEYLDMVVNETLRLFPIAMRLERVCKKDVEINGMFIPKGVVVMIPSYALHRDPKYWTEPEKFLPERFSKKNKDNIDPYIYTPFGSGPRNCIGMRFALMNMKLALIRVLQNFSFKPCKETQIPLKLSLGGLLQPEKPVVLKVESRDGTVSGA
Free fatty acid receptor 1 (Mus musculus, UniProt Q76JU9), sequence (Q76JU9 whole entry): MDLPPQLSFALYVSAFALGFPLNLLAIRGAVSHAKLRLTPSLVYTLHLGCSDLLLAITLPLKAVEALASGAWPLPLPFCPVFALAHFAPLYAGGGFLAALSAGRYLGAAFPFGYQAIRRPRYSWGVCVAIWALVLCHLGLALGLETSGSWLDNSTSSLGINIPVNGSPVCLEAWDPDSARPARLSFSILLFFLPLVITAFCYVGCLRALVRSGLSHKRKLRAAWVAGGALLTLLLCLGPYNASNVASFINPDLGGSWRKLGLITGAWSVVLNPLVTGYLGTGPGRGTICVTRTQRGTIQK
Cytochrome P450 2C9, sequence (P11712 whole entry): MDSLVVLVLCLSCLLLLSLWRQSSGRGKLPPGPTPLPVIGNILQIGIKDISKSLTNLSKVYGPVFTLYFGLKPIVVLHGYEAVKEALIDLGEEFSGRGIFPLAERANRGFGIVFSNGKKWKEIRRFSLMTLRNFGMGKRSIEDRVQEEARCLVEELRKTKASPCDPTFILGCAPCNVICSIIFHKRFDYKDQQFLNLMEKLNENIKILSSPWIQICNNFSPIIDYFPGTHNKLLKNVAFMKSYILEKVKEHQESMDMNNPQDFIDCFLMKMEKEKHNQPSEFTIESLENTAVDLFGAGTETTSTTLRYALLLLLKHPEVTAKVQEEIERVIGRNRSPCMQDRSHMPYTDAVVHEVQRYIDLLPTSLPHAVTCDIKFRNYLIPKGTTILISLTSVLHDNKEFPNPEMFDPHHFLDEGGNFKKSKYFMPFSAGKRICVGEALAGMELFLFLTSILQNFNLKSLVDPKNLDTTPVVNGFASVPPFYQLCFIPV
Cytochrome P450 2D6, sequence (P10635 whole entry): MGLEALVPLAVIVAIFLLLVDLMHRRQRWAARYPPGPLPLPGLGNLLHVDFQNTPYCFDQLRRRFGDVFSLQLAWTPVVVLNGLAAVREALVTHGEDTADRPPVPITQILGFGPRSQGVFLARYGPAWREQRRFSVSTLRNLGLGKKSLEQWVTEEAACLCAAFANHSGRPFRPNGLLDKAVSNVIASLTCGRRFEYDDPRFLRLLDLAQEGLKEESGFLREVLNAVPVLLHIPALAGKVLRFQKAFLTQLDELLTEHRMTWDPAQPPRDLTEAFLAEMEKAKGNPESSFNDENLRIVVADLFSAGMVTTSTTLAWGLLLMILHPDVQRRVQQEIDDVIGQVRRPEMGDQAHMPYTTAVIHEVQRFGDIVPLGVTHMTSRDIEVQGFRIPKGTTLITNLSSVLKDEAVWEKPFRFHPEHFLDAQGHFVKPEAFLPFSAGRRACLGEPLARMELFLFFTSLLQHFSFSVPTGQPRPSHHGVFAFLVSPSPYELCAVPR

Work on `COCCCO[C@H]1CN(c2ccc(O[C@@H]3CCN(c4cc(OC)ncc4Cl)C[C@H]3C)cc2)[C@@H](CC(=O)O)[C@@H]1C` yielded an AUC [1] of 3150 µM·h, a Fu [2] of less than 0.1% and an AUC [3] of 2.2 µM·h. For the same compound, the AUC [4] was 1480 µM·h, the AUC [5] was 84 µM·h and the Tmax [6] was 2 h. For the same compound, the AUC(0-t) [7] was 4.4 µM·h, the IC50 [8] was 40 µM and the Cmax [9] was 49 µM. For the same compound, the IC50 [10] was 40 µM, the Cmax [11] was 2.8 µM and the IC50 [12] was 34 µM. The half-life [13] was 3.6 h, the Cmax [14] was 151 µM and the logD [15] was 1.32. For the same compound, the EC50 [16] was 0.049 µM, the Activity [17] was 148% and the IC50 [18] was 29 µM. The clearance [19] was 7.9 mL/min/kg, the Activity [20] was “Non-Toxic” and the Activity [21] was “Toxic”. For the same compound, the solubility [22] was 383 µg/mL (≈ 681 µM), the AUC [23] was 534 µM·h and the Activity [24] was “inactive”. It also gave a Vd [25] of 1.1 L/kg, a Vd [26] of 1.4 L/kg and an IC50 [27] of 8.3 µM. For the same compound, the remaining at 10 min [28] was 79%, the Activity [29] was “Non-Toxic” and the bioavailability [30] was 100%. For the same compound, the Cmax [31] was 11 µM, the IC50 [32] was 40 µM and the Papp A→B [33] was 24.3 ×10⁻⁶ cm/s. It also gave an Activity [34] of 26%, a remaining at 10 min [35] of 100% and an AUC [36] of 4.4 µM·h. The remaining at 10 min [37] was 77%, the Activity [38] was “inactive” and the Activity [39] was “Non-Toxic”. For the same compound, the Cmax [40] was 2.8 µM, the bioavailability [41] was 100% and the Activity [42] was “inactive”. It also gave a Tmax [43] of 2 h, a solubility [44] of 28 µg/mL (≈ 49.8 µM) and a solubility [45] of 239 µg/mL (≈ 425 µM). The Fu [46] was 0.9%, the AUC at […] [47] was 53 µM·h and the EC50 [48] was 0.014 µM. The Tmax [49] was 2 h, the half-life [50] was 3.4 h and the EC50 [51] was 1.8 µM. For the same compound, the Activity [52] was “Active”, the solubility [53] was 1300 µg/mL (≈ 2320 µM) and the Cmax [54] was 1.6 µM. The Activity [55] was “Active” and the clearance [56] was 5.9 mL/min/kg.
